# Results from patent US7629150B2, “Transformed cell harboring DNA or RNA encoding sugar chain synthesizing agent having β1,3-N-acetylglucosaminyltransferase activity” (Kyowa Hakko Kirin Co., Ltd., priority 2000, dated 2009).
# What was measured:
# G6sec2 [1] = target: T1, G6sec2 (Homo sapiens, UniProt Q9BYG0); experiment: β1,3-N-acetylglucosaminyltransferase activity using unlabeled oligosaccharides as substrates (HPAE/PAD); type: biochemical
# T1 construct: made in house; host or cells: Sf21 insect cells infected with pVL1393-F2G6sec2-derived recombinant baculovirus
# T1 sequence (Q9BYG0 39-378): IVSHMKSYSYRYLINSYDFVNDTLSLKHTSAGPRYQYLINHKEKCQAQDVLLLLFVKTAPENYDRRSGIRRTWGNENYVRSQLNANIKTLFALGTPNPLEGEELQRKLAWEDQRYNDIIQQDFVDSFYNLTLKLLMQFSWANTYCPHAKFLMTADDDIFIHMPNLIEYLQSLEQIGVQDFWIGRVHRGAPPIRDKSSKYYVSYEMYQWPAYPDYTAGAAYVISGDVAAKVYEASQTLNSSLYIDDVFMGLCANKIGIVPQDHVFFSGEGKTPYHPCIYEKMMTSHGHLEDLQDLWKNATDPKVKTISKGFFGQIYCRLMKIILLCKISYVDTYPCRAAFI
# Experimental: The glycosyltransferase reaction was carried out as follows. The reaction was carried out at 37° C. for 16 hours in 40 μl of an assay solution [50 mmol/l MOPS (pH 7.5), 5 mmol/l UDP-GlcNAc (manufactured by SIGMA), 5 mmol/l MnCl2, 10 mmol/l sugar chain substrate, a purified enzyme solution (G6sec2)]. Next, the mixture was treated at 100° C. for 5 minutes and then centrifuged at 10,000×g for 20 minutes to obtain a supernatant, and a part thereof was analyzed using HPAE/PAD ([…]; manufactured by DIONEX). The method was specifically carried out according to a conventional method [Anal. Biochem., 189, 151-162 (1990), J. Biol. Chem., 273, 433-440 (1998)].
# As a purified enzyme (G6sec2), […] of the enzyme obtained in the above (2) was used. As substrates, unlabeled oligosaccharides [lactose (Galβ1-4Glc) and LNnT] were used.
# After the reaction on each substrate using an assay solution containing UDP-GlcNAc (saccharide donor) and an assay solution containing no donor, analysis was carried out using HPAE/PAD and peaks appeared only in the assay solution containing UDP-GlcNAc were defined as products. The product was identified using coincidence of its elution time with that of standard sugar chain as the index. As standard sugar chains, GlcNAcβ1-3Galβ1,4Glc and GlcNAcβ1-3Galβ1,4GlcNAcβ1-3Galβ1-4Glc were used.
# G6 polypeptide = target: T2, G6 polypeptide (Homo sapiens, UniProt Q9BYG0); experiment: β1,3-N-acetylglucosaminyltransferase activity of cell extract of Namalwa cells transfected with pAMo-G6, glycolipid substrates; type: biochemical; conditions: for conversion efficiency into the product: 250 μmol/l glycolipid, 37° C., 16 hours
# T2 construct: In order to obtain a DNA encoding the full-length G6 polypeptide, PCR was carried out; expressed in transfected cells; Triton X-100 cell extract
# T2 sequence (Q9BYG0 1-378): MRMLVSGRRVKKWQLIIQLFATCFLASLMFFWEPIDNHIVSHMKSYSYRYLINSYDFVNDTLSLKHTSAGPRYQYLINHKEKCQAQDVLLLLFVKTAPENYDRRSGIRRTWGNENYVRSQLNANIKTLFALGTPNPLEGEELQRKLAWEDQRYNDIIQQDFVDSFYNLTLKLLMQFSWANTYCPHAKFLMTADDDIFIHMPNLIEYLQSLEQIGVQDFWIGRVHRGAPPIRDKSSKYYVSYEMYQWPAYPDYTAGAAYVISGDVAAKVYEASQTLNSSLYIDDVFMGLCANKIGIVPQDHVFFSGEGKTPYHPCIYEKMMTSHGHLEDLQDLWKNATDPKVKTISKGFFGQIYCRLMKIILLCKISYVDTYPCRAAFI
# Experimental: β1,3-N-Acetylglucosaminyltransferase activity of G6 polypeptide was measured by using glycolipids as substrates according to known methods [FEBS, 462, 289 (1999), J. Biol. Chem., 269, 14730-14737 (1994), J. Biol. Chem., 267, 23507 (1992), J. Biol. Chem., 267, 2994 (1992)]. Specifically, the reaction was carried out at 37° C. for 16 hours in 20 μl of reaction solution [150 mmol/l sodium cacodylate (pH 7.2), 10 mmol/l UDP-GlcNAc (manufactured by SIGMA), 480 μmol/l UDP—[^14C]GlcNAc (manufactured by Amersham), 0.4% Triton CF-54, 10 mmol/l MnCl2, 250 μmol/l glycolipid, the cell extract prepared in the above (1) (20 μg as protein)]. As glycolipids, lactosylceramide (manufactured by SIGMA) and paragloboside (obtained from Yasunori Kushi at Tokyo Medical and Dental University) were used. After completion of the reaction, 200 μl of 0.1 mol/l KCl was added and lightly centrifuged to obtain the supernatant. The supernatant was passed through Sep-Pak plus C18 Cartridge (Waters), which had been washed once with 10 ml of methanol and equilibrated twice with 10 ml of 0.1 mol/l KCl, to adsorb the glycolipid in the supernatant onto the cartridge. After washing the cartridge twice with 10 ml of pure water for HPLC, the adsorbed glycolipid was eluted with 5 ml of methanol. After concentrating the eluate to about 10 μl by using a vacuum dryer, the concentrated solution was spotted on a TLC plate (HPTLC plate Silica gel 60: manufactured by MERCK) and developed using a developing solvent comprising a composition of chloroform:methanol:water (containing 0.2% CaCl2)=65:35:8. After the development was carried out to a position 5 mm from the upper end of the TLC plate, the plate was dried and then the radioactivity incorporated into the glycolipid was measured using Bio Image Analyzer BAS 2000 (manufactured by Fuji Photo Film).
# G6sec2 [2] = target: T1, G6sec2; experiment: β1,3-N-acetylglucosaminyltransferase activity using glycolipids as substrates (purified enzyme); type: biochemical; conditions: for conversion efficiency: purified G6sec2 10 μl, 37° C., 16 hours
# Experimental: Using glycolipids as the substrate, β1,3-N-acetylglucosaminyltransferase activity of the G6 polypeptide was measured according to known methods [FEBS, 462, 289 (1999), J. Biol. Chem., 269, 14730-14737 (1994), J. Biol. Chem., 267, 23507 (1992), J. Biol. Chem., 267, 2994 (1992)]. Specifically, the reaction was carried out at 37° C. for 16 hours in 20 μl of a reaction solution [150 mmol/l sodium cacodylate (pH 7.2), 10 mmol/l UDP-GlcNAc (manufactured by SIGMA), 480 μmol/l UDP—[^14C]GlcNAc (manufactured by Amersham), 0.4% Triton CF-54, 10 mmol/l MnCl2, […] glycolipid, purified enzyme (G6sec2)]. As the purified enzyme (G6sec2), 10 μl of the enzyme obtained in the above (2) was used. As glycolipids, lactosylceramide, paragloboside, galactosylceramide (Type I) and galactosylceramide (Type II) were used. Paragloboside was obtained from Yasunori Kushi at Tokyo Medical and Dental University. Other glycolipids were purchased from SIGMA. After completion of the reaction, 200 μl of 0.1 mol/l KCl was added and lightly centrifuged to obtain the supernatant. The supernatant was passed through Sep-Pak plus C18 Cartridge (manufactured by Waters) which had been washed once with 10 ml of methanol and equilibrated by washing twice with 10 ml of 0.1 mol/l KCl to adsorb the glycolipid in the supernatant onto the cartridge. After washing the cartridge twice with 10 ml of pure water for HPLC, the adsorbed glycolipid was eluted with 5 ml of methanol. After concentrating the eluate to about 10 μl using a vacuum dryer, the concentrated solution was plotted on a TLC plate (HPTLC plate Silica gel 60: manufactured by MERCK) and developed using a developing solvent comprising a composition of chloroform:methanol:water (containing 0.2% CaCl2)=65:35:8. After the development was carried out to a position 5 mm from the upper end of the TLC plate, the plate was dried and then the radioactivity incorporated into the glycolipid was measured using Bio Image Analyzer BAS 2000 (manufactured by Fuji Photo Film).
# G6sec2 [3] = target: T1, G6sec2; experiment: GlcNAc β1,3-galactosyltransferase activity measurement; type: biochemical; conditions: 2-aminobenzamide-labeled substrate 88 μmol/l; UDP-Gal; 37° C., 16 hours
# Experimental: (§1) The β1,3-galactosyltransferase activity measurement was carried out according to a conventional method [J. Biol. Chem., 274, 12499-12507 (1999)]. The reaction was carried out at 37° C. for 16 hours in 20 μl of an assay solution [14 mmol/l HEPES (pH 7.4), 75 μmol/l UDP-Gal (manufactured by SIGMA), 11 mmol/l MnCl2, 88 μmol/l sugar chain substrate, the above purified enzyme]. The amount of the enzyme used was the same as the amount used in the measurement of β1,3-N-acetylglucosaminyltransferase. As a substrate, 2-aminobenzamide-labeled GlcNAcβ1-3Galβ1-4GlcNAcβ1-3Galβ1-4GlcNAc (hereinafter referred to as “GlcNAc-2LN”) was used. The sugar chain was prepared by treating 2-aminobenzamide-labeled LN3 with β-galactosidase and thereby removing the terminal galactose residue. Specifically, 100 milli-units of β-galactosidase (manufactured by Seikagaku Corporation) were added to about 60 nmol of 2-aminobenzamide-labeled LN3, the reaction was carried out at 37° C. for 16 hours, and the sugar chain was prepared by inactivating β-galactosidase through its heat treatment at 100° C. for 5 minutes.
# G6sec1 = target: T3, G6sec1 (Homo sapiens, UniProt Q9BYG0); experiment: as above; type: biochemical; conditions: 2-aminobenzamide-labeled substrate 88 μmol/l; UDP-Gal; 37° C., 16 hours
# T3 construct: made in house; host or cells: Sf21 insect cells infected with pVL1393-F2G6sec1-derived recombinant baculovirus
# T3 sequence (Q9BYG0 36-378): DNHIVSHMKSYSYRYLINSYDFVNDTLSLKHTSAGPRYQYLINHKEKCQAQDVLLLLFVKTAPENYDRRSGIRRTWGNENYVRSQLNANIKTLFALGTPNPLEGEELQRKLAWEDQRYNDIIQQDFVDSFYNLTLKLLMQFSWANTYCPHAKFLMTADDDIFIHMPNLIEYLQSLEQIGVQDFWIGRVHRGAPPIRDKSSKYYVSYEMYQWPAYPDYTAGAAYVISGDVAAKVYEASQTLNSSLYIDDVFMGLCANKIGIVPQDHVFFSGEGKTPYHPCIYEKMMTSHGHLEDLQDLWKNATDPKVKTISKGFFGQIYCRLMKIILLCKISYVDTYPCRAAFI
# Experimental: as §1
# [4] = test system: pCXN2-G6-transfected HCT-15 cell; experiment: Sugar chain synthesis inhibitors: FACS analysis with OSK28 of poly-N-acetyllactosamine sugar chains; type: cell-based, human; conditions: cultured for 5 days
# Experimental: The HCT-15 cells transfected with pCXN2-G6 or pCXN2 prepared in the above (2) (each 5×10^6 cells) were washed by using 3 ml of a phosphate buffer PBS (8 g/l NaCl, 0.2 g/l KCl, 1.15 g/l Na2HPO4 (anhydrous) and 0.2 g/l KH2PO4).
# The cells (about 1×10^6 cells) described above were put into a microtube (1.5 ml, manufactured by Eppendorf) and the cells were collected by centrifugation (550×g, 7 minutes).
# The cells were washed with 0.9 ml of 0.1% sodium azide-containing PBS (A-PBS: 8 g/l NaCl, 0.2 g/l KCl, 1.15 g/l Na2HPO4 (anhydrous), 0.2 g/l KH2PO4 and 0.1% sodium azide), and then the washed cells were suspended in 100 μl of an antibody (OSK28) capable of recognizing a poly-N-acetyllactosamine sugar chain diluted with A-PBS to give a concentration of 10 μg/ml (20 times dilution of the following purified antibody) and allowed to react at 4° C. for 30 minutes in the dark.
# After the reaction, the cells are washed twice with 3 ml of A-PBS, suspended in 100 μl of an FITC-labeled anti-human IgM antibody [manufactured by Medical & Biological Laboratories (MBL)] diluted to 10 μg/ml, and then allowed to react at 4° C. for 1 hour. After the reaction, the cells were washed twice with 3 ml of A-PBS, suspended in 200 μl of PBS containing 0.5% p-formaldehyde and then immobilized. The cells were analyzed by using FACS (Epics Elite Flow Cytometer). […]
compound,measurement,setting,value
OC[C@H]1O[C@@H](O[C@H]2[C@H](O)[C@@H](O)C(O)O[C@@H]2CO)[C@H](O)[C@@H](O)[C@H]1O (stereo partly shown) [lactose],conversion efficiency into the product,"G6sec2 [1]; unlabeled oligosaccharide 10 mmol/l, 37° C., 16 hours",0.30%
same,"relative activity, LNnT as substrate defined as 100%",G6sec2 [1]; unlabeled oligosaccharides,62.5%
lactosylceramide,conversion efficiency into the product,G6 polypeptide,0.125%
same,conversion efficiency,G6sec2 [2]; glycolipid substrate,5.39%
GlcNAcβ1-3Galβ1-4GlcNAcβ1-3Galβ1-4GlcNAc [GlcNAc-2LN],"GlcNAc β1,3-galactosyltransferase activity",G6sec2 [3],did not show
same,"GlcNAc β1,3-galactosyltransferase activity",G6sec1,did not show
CC(=O)N[C@H]1[C@@H](OCc2ccccc2)O[C@H](CO)[C@H](O)[C@@H]1O [benzyl-α-GalNAc],reactivity to OSK28 antibody in comparison with absence of inhibitor,[4]; 4 mmol/l,sharply reduced
paragloboside,conversion efficiency into the product,G6 polypeptide,0.126%
same,activity relative to lactosylceramide as substrate defined as 100%,G6 polypeptide; glycolipid substrates,96%
same,conversion efficiency,G6sec2 [2]; glycolipid substrate,25.2%
same,activity relative to lactosylceramide as substrate defined as 100%,"G6sec2 [2]; glycolipid substrates, purified G6sec2",468%
galactosylceramide (Type II),"β1,3-N-acetylglucosaminyltransferase activity for the glycolipid","G6sec2 [2]; glycolipid substrate, purified G6sec2",did not show activity
O[C@H]1[C@H]2[C@H](O)CCCN2C[C@H]1O [swainsonine],reactivity to OSK28 antibody,[4]; 10 μg/ml,reduced
